Reference: patent US5451506A, “Oncostatin M and novel compositions having anti-neoplastic activity” (Oncogen Limited Partnership, priority 1993, dated 1995)

Tests used:
[1] = system: A375 melanoma cells; assay: Soft agar colony inhibition assay (TGI); type: cell-based, human; conditions: 11 days; for # Colonies: untreated 106
Method: A 0.5 ml base layer of 0.5% agar (Agar Noble; Difco Laboratories, Detroit, Mich.) in growth medium was added to 24-well Costar tissue culture plates. One-half ml 0.3% agar in growth medium containing 1 to 2.5×10^3 A375 cells or other cell line of interest at an appropriate cell density, and various concentrations of the factor to be tested were overlaid on the base layer of agar. The plates were incubated at 37° C. in a humidified atmosphere of 5% CO2 in air and refed after 7 days by addition of 0.5 ml of 0.3% agar in growth medium containing the same concentration of the factor to be tested as used previously. Colonies were enumerated unfixed and unstained. The number of colonies with greater than 6 cells were scored.
A375 cells were plated in soft agar, with or without the indicated GIA units of Oncostatin M (see Table 3), as described above in Example 1C. The factor used was from a C18^3 propanol column fraction with peak tumor growth inhibitory activity (GIA). The number of colonies was enumerated at 11 days.

[2] = system: A549 lung cancer cells; assay: Cell growth modulatory assay using 3H-thymidine incorporation into DNA (GIA); type: cell-based, human
Method: (§1) The assays were performed in 96 flat well plates (Costar 3596). Human melanoma cells (A375) (3×10^3 /100 μl) or cells from another cell line of interest were at an appropriate cell density used. Cells in 100 μl growth medium were placed in each well. Three hours later, 100 μl of test sample in growth medium was added to each well. Plates were incubated at 37° C. for 3 days. Then 25 μl (0.5 μCi) of a solution of ^3 H-thymidine (specific activity 27 μCi/μg) was added to each well for the final 6 hours of incubation. The cells were then transferred to glass filter strips using a multiwell harvester (PHD Cell Harvester, Cambridge Technology, Inc.). The filters were transferred to scintillation vials. Two ml of scintillation fluid (ScientiVerse II, Fisher Scientific Co.) was added and the samples counted in a scintillation counter to quantitate ^3 H-thymidine incorporation.
(§2) The effect of Oncostatin M on various cell lines was assessed using a cell growth modulatory assay performed as described in Example 1B, above. The cell lines tested included A549 lung cancer cells. HTB10 neuroblastoma cells, and A375 melanoma cells.

[3] = system: HTB10 neuroblastoma cells; assay: as above; type: cell-based, human
Method: as §1, §2

[4] = system: MCF-7 breast tumor cells; assay: Inhibition of 3H-TdR incorporation, Oncostatin M and TNF-α; type: cell-based, human; conditions: MCF-7 Cells
Method: as §1
Inhibition of ^3 H-TdR incorporation into A375 cells and MCF-7 cells were compared using the assay described in Example 1B, above. The cells were treated with either Oncostatin M alone, TNF-α (Amgen Biologicals, human recombinant TNF-α) alone, or with a combination of Oncostatin M and TNF-α.

[5] = system: γ-interferon-sensitive human tumor cell line; assay: Cytotoxic activity against a γ-interferon-sensitive tumor line; type: cell-based
[6] = system: bone marrow cells; assay: Granulocytic/myelocytic colony formation from bone marrow cells; type: cell-based; conditions: concentrations up to 100 GIA units/ml

## Oncostatin M: Human polypeptide growth regulator produced by activated leukocytes; apparent molecular weight approximately 28 kD by PAGE
[1]; 27 GIA Units/Well
  % Inhibition of Colony Formation: 89%
  # Colonies: 11
[1]; 45 GIA Units/Well
  % Inhibition of Colony Formation: 69%
  # Colonies: 32
[1]; 83 GIA Units/Well
  % Inhibition of Colony Formation: 94%
  # Colonies: 6
[1]; 250 GIA Units/Well
  % Inhibition of Colony Formation: 96%
  # Colonies: 4
[2]; A549 (lung cancer)
  GIA Units to Cause 30% Inhibition 3H-TDR Incorporation: 21.0 GIA Units
[2]; A549, based upon the specific activity of purified Oncostatin M
  concentration to cause 30% inhibition 3H-TdR: approximately 1.4 ng/ml
[2]; Exp. 3, A549, 8 GIA units/well
  % Inhibition of 3H-thymidine incorporated: 16%
[2]; Exp. 3, A549, 25 GIA units/well
  % Inhibition of 3H-thymidine incorporated: 22%
[2]; Exp. 3, A549, 75 GIA units/well
  % Inhibition of 3H-thymidine incorporated: 30%
[3]; Exp. 2, HTB10, 3 GIA units/well
  % Inhibition of 3H-thymidine incorporated: 11%
[3]; Exp. 2, HTB10, 9 GIA units/well
  % Inhibition of 3H-thymidine incorporated: 22%
[3]; Exp. 2, HTB10, 27 GIA units/well
  % Inhibition of 3H-thymidine incorporated: 28%
[3]; HTB10 (neuroblastoma)
  GIA Units to Cause 30% Inhibition 3H-TDR Incorporation: 81.0 GIA Units
[3]; HTB10, based upon the specific activity of purified Oncostatin M
  concentration to cause 30% inhibition 3H-TdR: ~4.0 ng/mL
[4]
  Observed % Inhibition of 3H-TdR Incorporation: 18%
[5]
  Cytotoxic activity: lacks cytotoxic activity
[6]
  Granulocytic/myelocytic colony formation: does not inhibit granulocytic/myelocytic colony formation
